Assay results as given in US10568913B2, “Method for generating mature β-like cells” (The University of Western Australia, priority 2013, dated 2020).

Test system: Ngn3+ progenitor-containing E-cad+ cells
Assay: Insulin-producing (MIPGFP+) cell differentiation from sorted E-cad+ cells of E15.5 MIPGFP mouse pancreas
Type: cell-based
Conditions: for effect on Nic-induced differentiation: co-culture with Nic 10 mM (FIG. 1g, 5, 13, 15); for promotion of MIPGFP+ insulin-producing cell differentiation by the molecule on its own: compound alone, without Nic, day 4 (FIG. 1g, 5a)
Description: Approximately 7,500 E15.5 [at which the number of Ngn3^+ progenitors is peaked] mouse fetuses from both MIPGFP and Ngn3-GPF/RIP-DsRed lines were used for enrichment/purification of Ngn3^+ progenitors. Mouse pancreases were dissected under a stereoscope (Olympus, Tokyo, Japan). Eleven human fetal pancreases were collected from 18-22 week-fetuses (Table 1) and minced. Both mouse and human pancreases were enzymatically dissociated into single cells under aseptic conditions. […] After each incubation with antibodies, cells were washed twice with FACS buffer (0.1% bovine serum albumin in phosphate buffered saline) and finally re-suspended in this buffer containing 1 μg/ml propidium iodide (PI) or 4′,6-diamidino-2-phenylindole (DAPI) for sorting (FACSAria II, Becton Dickson Labware, Bedford). The purity of sorted cells was determined by post-sort analysis.
Sorted β-cell progenitor-enriched cells or Ngn3^+ β-cell progenitors were differentiated in 96-, 12- or 6-well plates (BD Labware). […] Growth factor-reduced Matrigel (200 μg/ml, BD Biosciences) was overlayed onto cells in the presence of various potential regulators. Thyrotropin releasing hormone (TRH, 100 nM) was purchased from Auspep (Melbourne, Australia). […] Cultures were incubated in 10% CO2 90% air at 37° C., for up to 8 days.
The number of β-like cells was directly quantified under a fluorescence microscope. To verify the accuracy of cell count, at least five randomly chosen fields per well were microphotographed under the inverse IX71 Olympus fluorescence microscope (Olympus, Tokyo, Japan) and the number of β-like cells determined with the Image Pro Plus software installed in the computer.

| Compound | effect on Nic-induced differentiation | promotion of MIPGFP+ insulin-producing cell differentiation by the molecule on its own | also measured |
| --- | --- | --- | --- |
| 6-chloro-2,3,4,9-tetrahydro-1H-carbazo-1-carboxamide [EX527] | did reduce Nic-induced differentiation | did not significantly promote differentiation |  |
| O=C1Nc2cc(Br)ccc2/C1=C1/Nc2ccccc2/C1=N\O [BIO, (2′Z,3′E)-6-bromoindirubin-3′-oxime] | suppressed or abolished | did not yield |  |
| C[C@H](NC(=O)Cc1cc(F)cc(F)c1)C(=O)N[C@H](C(=O)OC(C)(C)C)c1ccccc1 [DAPT] |  | did not yield |  |
| NC(=O)c1ccncc1 [INic, isonicotinamide] |  |  | number of MIPGFP+ cells compared to Nic (INic 10 mM alone, days 4, 6 and 8): approximately half |
| O=C(O)C(Cc1c[nH]c2ccccc12)N1C(=O)c2ccccc2C1=O (stereo not drawn) [RG-108, α-(1,3-dihydro-1,3-dioxo-2H-isoindo1-2-yl)-1H-indole-3-propanoic acid] |  | did not yield |  |
| NC(=O)[C@@H]1CCCN1C(=O)[C@H](Cc1cnc[nH]1)NC(=O)[C@@H]1CCC(=O)N1 [TRH, Thyrotropin releasing hormone] |  | did not yield |  |
| COc1cc(/C=C/C(=O)CC(=O)/C=C/c2ccc(O)c(OC)c2)ccc1O [curcumin, (E, E)-1,7-bis (4-hydroxy-3-methoxyphenyl)-1,6-heptadiene-3,5-dione] | significantly reduced |  |  |
| NC(=O)c1ccc[n+]([C@@H]2O[C@H](COP(=O)([O-])O)[C@@H](O)[C@H]2O)c1 [nicotinamide mononucleotide, β-nicotinamide mononucleotide] | did not modify |  |  |
| O=c1c(O)c(-c2ccc(O)c(O)c2)oc2cc(O)cc(O)c12 [quercetin] | suppressed or abolished | did not yield |  |
| Oc1ccc(/C=C/c2cc(O)cc(O)c2)cc1 [resveratrol, 5-[(1E)-2-(4-hydroxyphenyl)ethenyl]-1,3-benzenediol] | completely abolished |  | cellular viability (in combination with Nic): without apparently affecting cellular viability |
| CCCC(=O)[O-].[Na+] [sodium butyrate] | significantly (p<0.05) reduced |  |  |
| CC(=O)C(=O)[O-].[Na+] [sodium pyruvate] | significantly inhibited |  |  |
| CC(/C=C/C(=O)NO)=C\[C@@H](C)C(=O)c1ccc(N(C)C)cc1 [trichostatin A] | significantly (p<0.05) reduced |  |  |
| C[C@H](NC(=O)Cc1cc(F)cc(F)c1)C(=O)N[C@H]1N=C(c2ccccc2)c2ccccc2N(C)C1=O [γ-secretase inhibitor XXI] |  | did not yield |  |
| CC(C)C[C@H](NC(=O)[C@H](Cc1ccccc1)C[C@@H](O)[C@H](Cc1ccccc1)NC(=O)OC(C)(C)C)C(=O)N[C@@H](Cc1ccccc1)C(N)=O [γ-secretase inhibitor X] |  | did not yield |  |
| exendin-4 [Ex4] |  | did not yield |  |
